Reference: patent US6613899B1, “Method for preventing deposits in oil extraction” (Cooperatie Cosun U.A., priority 1998, dated 2003)

Legend:
[1] = Barium sulphate scale inhibition; conditions: pH 5.5, 80° C., 10 hours
Description: (§1) The scale-inhibiting action of CMI (DP≈10) was determined for barium sulphate. A saturated barium sulphate solution was prepared by mixing a barium chloride solution (380 mg/l) with a sodium sulphate solution (3350 mg/l) in a 1:1 ratio, with a maximum amount of barium sulphate to be formed of 210 mg/l. 5 mg/l, 10 mg/l or 15 mg/l of inhibitor was added to the solution. The pH of the solution was adjusted to 5.5 by addition of 1 ml acetate buffer (3.6 g sodium acetate trihydrate and 0.5 g acetic acid per 100 ml) per 100 ml. The solution was then left to stand at 80° C. After 10 hours the solution was filtered by suction through a 0.45 μm Millipore filter and the barium content of the filtrate was determined. The action of the inhibitor was calculated on the basis of the barium value for the experiment without inhibitor (0 per cent inhibition) and the barium value at which no precipitate was formed (100 per cent inhibition).

[2] = Barium sulphate scale inhibition in presence of Fe2+ ions; conditions: 38 mg/l Fe2+ ions, pH 5.5, 80° C., 10 hours
Description: as §1
Example 4 was repeated, with the exception that the barium sulphate solution contained 38 mg/l of Fe^2+ ions.

## O=P(O)(O)CN(CCN(CP(=O)(O)O)CP(=O)(O)O)CCN(CP(=O)(O)O)CP(=O)(O)O [Pentaphosphonate (DETPMP)]
[1]; 5 mg/l inhibitor
  Inhibition (%) with 5 mg/l: 18.0%
[1]; 10 mg/l inhibitor
  Inhibition (%) with 10 mg/l: 38.5%
[1]; 15 mg/l inhibitor
  Inhibition (%) with 15 mg/l: 55.5%
[2]; 5 mg/l inhibitor
  Inhibition (%) with 5 mg/l: 12.0%
[2]; 10 mg/l inhibitor
  Inhibition (%) with 10 mg/l: 21.5%
[2]; 15 mg/l inhibitor
  Inhibition (%) with 15 mg/l: 34.5%
